# Test results taken from patent US10370433B2, “Compositions and methods for diagnosis and treatment of cancer” (BIONTECH AG, priority 2015, dated 2019).
# Positions of bridges follow the written chain, without caps; N, C: chain ends. Residues, ends and D or L forms follow the SMILES beside them.
# Target: T1, recombinant human Seprase (rhuSeprase) (Homo sapiens, UniProt Q12884)
# T1 construct: named pCEP4-IgKappa-huSeprase-coCHO_26-760aa-H6 and used for the generation of recombinant soluble human Seprase (rhuSeprase); mouse Ig kappa-chain V-J2-C secretion signal (N, cleaved yes); made in house; host or cells: FreeStyle CHO-S cells (transient transfection; purified from supernatant by Ni-chelate and SEC)
# T1 sequence (Q12884 26-760): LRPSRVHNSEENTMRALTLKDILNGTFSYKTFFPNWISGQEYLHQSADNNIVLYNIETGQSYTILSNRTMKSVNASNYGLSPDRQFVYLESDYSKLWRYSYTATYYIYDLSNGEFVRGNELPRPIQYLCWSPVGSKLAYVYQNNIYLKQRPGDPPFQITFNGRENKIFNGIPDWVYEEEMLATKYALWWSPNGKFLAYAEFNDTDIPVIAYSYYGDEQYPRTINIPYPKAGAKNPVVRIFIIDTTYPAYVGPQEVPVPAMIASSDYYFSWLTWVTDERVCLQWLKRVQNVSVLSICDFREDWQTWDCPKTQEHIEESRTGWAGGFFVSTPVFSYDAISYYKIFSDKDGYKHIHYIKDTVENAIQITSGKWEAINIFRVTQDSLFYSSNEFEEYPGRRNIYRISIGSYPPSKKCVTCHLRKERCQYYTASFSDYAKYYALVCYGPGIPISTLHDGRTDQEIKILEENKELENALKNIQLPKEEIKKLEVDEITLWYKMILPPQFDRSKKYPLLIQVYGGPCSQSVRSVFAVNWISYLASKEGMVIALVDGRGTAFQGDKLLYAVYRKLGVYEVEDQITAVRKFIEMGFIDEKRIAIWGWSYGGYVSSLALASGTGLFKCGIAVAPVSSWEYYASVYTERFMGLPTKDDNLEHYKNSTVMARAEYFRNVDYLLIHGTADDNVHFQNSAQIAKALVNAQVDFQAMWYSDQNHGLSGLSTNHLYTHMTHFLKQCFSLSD
# Experiment: Surface plasmon resonance (Biacore T100) on immobilized rhuSeprase
# Format: binding
# Settings: for kon: read-out: ka (1/Ms)
Structure (SMILES),kd,"Kd (KD (M, steady state))",kon
"CC[C@H](C)[C@@H]1NC(=O)[C@@H]2CSSC[C@H](NC(=O)[C@H](C)NC(=O)CNC(=O)[C@H](CO)NC(=O)CN)C(=O)N3CCC[C@H]3C(=O)N[C@@H](Cc3ccc(O)cc3)C(=O)N[C@@H](CO)C(=O)N[C@@H](CCCNC(=N)N)C(=O)N[C@@H](Cc3c[nH]c4ccccc34)C(=O)N[C@@H](C)C(=O)N[C@@H](C(C)C)C(=O)NCC(=O)N[C@@H](CCCNC(=N)N)C(=O)NCC(=O)N3CCC[C@H]3C(=O)N[C@@H](CC(=O)O)C(=O)N[C@H]3CSSC[C@H](NC1=O)C(=O)N[C@@H](CCCNC(=N)N)C(=O)NCC(=O)N[C@@H](CC(N)=O)C(=O)NCC(=O)N[C@@H](Cc1ccc(O)cc1)C(=O)N[C@H](C(=O)NCC(=O)O)CSSC[C@H](NC(=O)[C@H](CC(=O)O)NC(=O)[C@H](CO)NC(=O)[C@H](CC(=O)O)NC(=O)[C@H](CCCNC(=N)N)NC(=O)[C@H](CCCNC(=N)N)NC3=O)C(=O)N1CCC[C@H]1C(=O)NCC(=O)N[C@@H](CCCNC(=N)N)C(=O)N2 [FA8-D06] (H-GSGACPYSRWAVGRGPDCRRDSDCPGRCICRGNGYCG-OH; disulfide 5-28, 18-30, 24-36; N-terminus and C-terminus assumed)",0.05303 s⁻¹,113 nM,346000 M⁻¹ s⁻¹
"CC[C@H](C)[C@@H]1NC(=O)[C@@H]2CSSC[C@H](NC(=O)[C@H](C)NC(=O)CNC(=O)[C@H](CO)NC(=O)CN)C(=O)N3CCC[C@H]3C(=O)N[C@@H](Cc3ccc(O)cc3)C(=O)N[C@@H](CO)C(=O)N[C@@H](CC(N)=O)C(=O)N[C@@H](Cc3c[nH]c4ccccc34)C(=O)N[C@@H](C)C(=O)N[C@@H](C(C)C)C(=O)NCC(=O)N[C@@H](CCCNC(=N)N)C(=O)NCC(=O)N3CCC[C@H]3C(=O)N[C@@H](CO)C(=O)N[C@H]3CSSC[C@H](NC1=O)C(=O)N[C@@H](CCCNC(=N)N)C(=O)NCC(=O)N[C@@H](CC(N)=O)C(=O)NCC(=O)N[C@@H](Cc1ccc(O)cc1)C(=O)N[C@H](C(=O)NCC(=O)O)CSSC[C@H](NC(=O)[C@H](CC(=O)O)NC(=O)[C@H](CO)NC(=O)[C@H](CC(=O)O)NC(=O)[C@H](CCCNC(=N)N)NC(=O)[C@H](CCCNC(=N)N)NC3=O)C(=O)N1CCC[C@H]1C(=O)NCC(=O)N[C@@H](CCCNC(=N)N)C(=O)N2 [FA8-F04] (H-GSGACPYSNWAVGRGPSCRRDSDCPGRCICRGNGYCG-OH; disulfide 5-28, 18-30, 24-36; N-terminus and C-terminus assumed)",0.2003 s⁻¹,–,624000 M⁻¹ s⁻¹
"CC[C@H](C)[C@@H]1NC(=O)[C@@H]2CSSC[C@H](NC(=O)[C@H](C)NC(=O)CNC(=O)[C@H](CO)NC(=O)CN)C(=O)N3CCC[C@H]3C(=O)N[C@@H](Cc3ccc(O)cc3)C(=O)N[C@@H]([C@@H](C)O)C(=O)N[C@@H](CCCNC(=N)N)C(=O)N[C@@H](Cc3c[nH]c4ccccc34)C(=O)N[C@@H](C)C(=O)N[C@@H](C(C)C)C(=O)NCC(=O)N[C@@H](CCCNC(=N)N)C(=O)NCC(=O)N3CCC[C@H]3C(=O)N[C@@H](CC(=O)O)C(=O)N[C@H]3CSSC[C@H](NC1=O)C(=O)N[C@@H](CCCNC(=N)N)C(=O)NCC(=O)N[C@@H](CC(N)=O)C(=O)NCC(=O)N[C@@H](Cc1ccc(O)cc1)C(=O)N[C@H](C(=O)NCC(=O)O)CSSC[C@H](NC(=O)[C@H](CC(=O)O)NC(=O)[C@H](CO)NC(=O)[C@H](CC(=O)O)NC(=O)[C@H](CCCNC(=N)N)NC(=O)[C@H](CCCNC(=N)N)NC3=O)C(=O)N1CCC[C@H]1C(=O)NCC(=O)N[C@@H](CCCNC(=N)N)C(=O)N2 [FA8-D03] (H-GSGACPYTRWAVGRGPDCRRDSDCPGRCICRGNGYCG-OH; disulfide 5-28, 18-30, 24-36; N-terminus and C-terminus assumed)",0.1381 s⁻¹,–,939000 M⁻¹ s⁻¹
"CC[C@H](C)[C@@H]1NC(=O)[C@@H]2CSSC[C@H](NC(=O)[C@H](C)NC(=O)CNC(=O)[C@H](CO)NC(=O)CN)C(=O)N3CCC[C@H]3C(=O)N[C@@H](Cc3ccc(O)cc3)C(=O)N[C@@H]([C@@H](C)O)C(=O)N[C@@H](CC(N)=O)C(=O)N[C@@H](Cc3c[nH]c4ccccc34)C(=O)N[C@@H](CCCNC(=N)N)C(=O)N3CCC[C@H]3C(=O)NCC(=O)N[C@@H](CCCNC(=N)N)C(=O)NCC(=O)N3CCC[C@H]3C(=O)N[C@@H](C)C(=O)N[C@H]3CSSC[C@H](NC1=O)C(=O)N[C@@H](CCCNC(=N)N)C(=O)NCC(=O)N[C@@H](CC(N)=O)C(=O)NCC(=O)N[C@@H](Cc1ccc(O)cc1)C(=O)N[C@H](C(=O)NCC(=O)O)CSSC[C@H](NC(=O)[C@H](CC(=O)O)NC(=O)[C@H](CO)NC(=O)[C@H](CC(=O)O)NC(=O)[C@H](CCCNC(=N)N)NC(=O)[C@H](CCCNC(=N)N)NC3=O)C(=O)N1CCC[C@H]1C(=O)NCC(=O)N[C@@H](CCCNC(=N)N)C(=O)N2 [FA8-C09] (H-GSGACPYTNWRPGRGPACRRDSDCPGRCICRGNGYCG-OH; disulfide 5-28, 18-30, 24-36; N-terminus and C-terminus assumed)",2.935 s⁻¹,–,9.92e+06 M⁻¹ s⁻¹
"CC[C@H](C)[C@@H]1NC(=O)[C@@H]2CSSC[C@H](NC(=O)[C@H](C)NC(=O)CNC(=O)[C@H](CO)NC(=O)CN)C(=O)N3CCC[C@H]3C(=O)N[C@@H](Cc3ccc(O)cc3)C(=O)N[C@@H](CO)C(=O)N[C@@H](CCCNC(=N)N)C(=O)N[C@@H](Cc3c[nH]c4ccccc34)C(=O)N[C@@H](CCSC)C(=O)N3CCC[C@H]3C(=O)NCC(=O)N[C@@H](CCCNC(=N)N)C(=O)NCC(=O)N3CCC[C@H]3C(=O)N[C@@H](CO)C(=O)N[C@H]3CSSC[C@H](NC1=O)C(=O)N[C@@H](CCCNC(=N)N)C(=O)NCC(=O)N[C@@H](CC(N)=O)C(=O)NCC(=O)N[C@@H](Cc1ccc(O)cc1)C(=O)N[C@H](C(=O)NCC(=O)O)CSSC[C@H](NC(=O)[C@H](CC(=O)O)NC(=O)[C@H](CO)NC(=O)[C@H](CC(=O)O)NC(=O)[C@H](CCCNC(=N)N)NC(=O)[C@H](CCCNC(=N)N)NC3=O)C(=O)N1CCC[C@H]1C(=O)NCC(=O)N[C@@H](CCCNC(=N)N)C(=O)N2 [FA7-A05] (H-GSGACPYSRWMPGRGPSCRRDSDCPGRCICRGNGYCG-OH; disulfide 5-28, 18-30, 24-36; N-terminus and C-terminus assumed)",0.05035 s⁻¹,–,246000 M⁻¹ s⁻¹
"CC[C@H](C)[C@@H]1NC(=O)[C@@H]2CSSC[C@H](NC(=O)[C@H](C)NC(=O)CNC(=O)[C@H](CO)NC(=O)CN)C(=O)N3CCC[C@H]3C(=O)N[C@@H](Cc3ccc(O)cc3)C(=O)N[C@@H](CO)C(=O)N[C@@H](CC(N)=O)C(=O)N[C@@H](Cc3c[nH]c4ccccc34)C(=O)N[C@@H]([C@@H](C)O)C(=O)N3CCC[C@H]3C(=O)NCC(=O)N[C@@H](CCCNC(=N)N)C(=O)NCC(=O)N3CCC[C@H]3C(=O)N[C@@H](CC(=O)O)C(=O)N[C@H]3CSSC[C@H](NC1=O)C(=O)N[C@@H](CC(C)C)C(=O)N[C@@H](CCC(=O)O)C(=O)N[C@@H](CC(N)=O)C(=O)NCC(=O)N[C@@H](Cc1ccccc1)C(=O)N[C@H](C(=O)NCC(=O)O)CSSC[C@H](NC(=O)[C@H](CC(=O)O)NC(=O)[C@H](CO)NC(=O)[C@H](CC(=O)O)NC(=O)[C@H](CO)NC(=O)[C@H](CO)NC3=O)C(=O)N1CCC[C@H]1C(=O)NCC(=O)N[C@@H](C)C(=O)N2 [MO-FA-012] (H-GSGACPYSNWTPGRGPDCSSDSDCPGACICLENGFCG-OH; disulfide 5-28, 18-30, 24-36; N-terminus and C-terminus assumed)",0.5128 s⁻¹,–,382000 M⁻¹ s⁻¹
"CC[C@H](C)[C@@H]1NC(=O)[C@@H]2CSSC[C@H](NC(=O)[C@H](C)NC(=O)CNC(=O)[C@H](CO)NC(=O)CN)C(=O)N3CCC[C@H]3C(=O)N[C@@H](Cc3ccc(O)cc3)C(=O)N[C@@H]([C@@H](C)O)C(=O)N[C@@H](CCCNC(=N)N)C(=O)N[C@@H](Cc3c[nH]c4ccccc34)C(=O)N[C@@H](CCC(N)=O)C(=O)N3CCC[C@H]3C(=O)NCC(=O)N[C@@H](CCCNC(=N)N)C(=O)NCC(=O)N3CCC[C@H]3C(=O)N[C@@H](CO)C(=O)N[C@H]3CSSC[C@H](NC1=O)C(=O)N[C@@H](CCCNC(=N)N)C(=O)NCC(=O)N[C@@H](CC(N)=O)C(=O)NCC(=O)N[C@@H](Cc1ccc(O)cc1)C(=O)N[C@H](C(=O)NCC(=O)O)CSSC[C@H](NC(=O)[C@H](CC(=O)O)NC(=O)[C@H](CO)NC(=O)[C@H](CC(=O)O)NC(=O)[C@H](CCCNC(=N)N)NC(=O)[C@H](CCCNC(=N)N)NC3=O)C(=O)N1CCC[C@H]1C(=O)NCC(=O)N[C@@H](CCCNC(=N)N)C(=O)N2 [FA8-D05] (H-GSGACPYTRWQPGRGPSCRRDSDCPGRCICRGNGYCG-OH; disulfide 5-28, 18-30, 24-36; N-terminus and C-terminus assumed)",0.8121 s⁻¹,–,4.21e+06 M⁻¹ s⁻¹
